The test system of one experiment is RKO. Briefly: Cell proliferation (cell count by microscopy), RKO. The class given is cell-based. To be noted: Homo sapiens; RKO (BRAF, PIK3CA), 72 h treatment, single agent tested 13 nM-10 μM; 50% of cell counts relative to DMSO. The text has this:
(§1) The debris counts were subtracted from raw nuclei counts.
(§2) The model input were inhibition values per drug dose: […]

Another experiment has as its system SW837. Briefly: Cell proliferation (cell count by microscopy), SW837. The class given is cell-based. The note with it: Homo sapiens; SW837 (KRAS), 72 h treatment, single agent tested 13 nM-10 μM; 50% of cell counts relative to DMSO.
Excerpt: as §1, §2

For a further experiment, the system named is COLO-320. Briefly: Cell proliferation (cell count by microscopy), COLO-320. The class given is cell-based. The note with it: Homo sapiens; COLO-320 (no driver mutation listed), 72 h treatment, single agent tested 13 nM-10 μM; 50% of cell counts relative to DMSO.
Excerpt: as §1, §2

A further experiment relates to LS411N. Briefly: Cell proliferation (cell count by microscopy), LS411N. Format: cell-based. To be noted: Homo sapiens, LS-411N; LS411N (BRAF), 72 h treatment, single agent tested 13 nM-10 μM; 50% of cell counts relative to DMSO.
Excerpt: as §1, §2

The next experiment has as its system LIM2551. Briefly: Cell proliferation (cell count by microscopy), LIM2551. To be noted: LIM2551 (BRAF, PIK3CA), 72 h treatment, single agent tested 13 nM-10 μM; 50% of cell counts relative to DMSO. Format: cell-based.
Excerpt: as §1, §2

The subject of the next experiment is SW480. Briefly: Cell proliferation (cell count by microscopy), SW480. Format: cell-based. The note with it: Homo sapiens; SW480 (KRAS), 72 h treatment, single agent tested 13 nM-10 μM; 50% of cell counts relative to DMSO.
Excerpt: as §1, §2

The test system of another experiment is HCT-116. Briefly: Cell proliferation (cell count by microscopy), HCT-116. To be noted: Homo sapiens; HCT-116 (KRAS, PIK3CA), 72 h treatment, single agent tested 13 nM-10 μM; 50% of cell counts relative to DMSO. Format: cell-based.
Excerpt: as §1, §2

In the next experiment the test system is HT-29. Briefly: Cell proliferation (cell count by microscopy), HT-29. The class given is cell-based. To be noted: Homo sapiens; HT-29 (BRAF, PIK3CA), 72 h treatment, single agent tested 13 nM-10 μM; 50% of cell counts relative to DMSO.
Excerpt: as §1, §2

The next experiment concerns LoVo. Briefly: Cell proliferation (cell count by microscopy), LoVo. Format: cell-based. The note with it: Homo sapiens; LoVo (KRAS), 96 h treatment, single agent tested 13 nM-10 μM; 50% of cell counts relative to DMSO.
Excerpt: as §1, §2

The subject of another experiment is GP2d. Briefly: Cell proliferation (cell count by microscopy), GP2d. The class given is cell-based. To be noted: GP2d (KRAS, PIK3CA), 72 h treatment, single agent tested 13 nM-10 μM; 50% of cell counts relative to DMSO.
Excerpt: as §1, §2

The next experiment deals with LS-180. Briefly: Cell proliferation (cell count by microscopy), LS-180. Format: cell-based. To be noted: Homo sapiens, LS180; LS-180 (KRAS, PIK3CA), 72 h treatment, single agent tested 13 nM-10 μM; 50% of cell counts relative to DMSO.
Excerpt: as §1, §2

The next experiment deals with OUMS-23. Briefly: Cell proliferation (cell count by microscopy), OUMS-23. Format: cell-based. To be noted: OUMS-23 (BRAF), 72 h treatment, single agent tested 13 nM-10 μM; 50% of cell counts relative to DMSO.
Excerpt: as §1, §2

For the next experiment, the system named is DLD-1. Briefly: Cell proliferation (cell count by microscopy), DLD-1. The class given is cell-based. The note with it: Homo sapiens; DLD-1 (KRAS, PIK3CA), 72 h treatment, single agent tested 13 nM-10 μM; 50% of cell counts relative to DMSO.
Excerpt: as §1, §2

Experiment [1] concerns 15 colorectal cancer cell lines. The note with it: single agent, 13 nM-10 μM.
Method: The compounds were dissolved in 100% DMSO (Sigma, Catalog number D2650) at concentrations of 20 mM and stored at -20° C. until use.
All cell line media were supplemented with 10% FBS (HyClone, Catalog number SH30071.03).
Cell lines were cultured in 37° C. and 5% CO2 incubator and expanded in T-75 flasks. In all cases cells were thawed from frozen stocks, expanded through ≤1 passage using 1:3 dilutions, counted and assessed for viability using a ViCell counter (Beckman-Coulter) prior to plating. […] All cell lines were determined to be free of mycoplasma contamination as determined by a PCR detection methodology performed at Idexx Radil (Columbia, Mo., USA) and correctly identified by detection of a panel of SNPs.
The compound's effect on cell proliferation was calculated from the cell counts of the treatments relative to the cell counts of the negative control (DMSO), in FIG. 1 denoted as ‘Normalized cell count’ (=‘xnorm’) on the y-axis. […] The model input were inhibition values per drug dose:
I=1-xnorm • I: Inhibition • xnorm: normalized cell count (median of three replicates) […]
C=ΣConc(Idata*(Idata−Imodel)) • Idata: measured inhibition • Imodel: inhibition according to HSA null hypothesis
Robust combination z-scores (zC) were calculated as the ratio of the treatments' combination scores C and the median absolute deviation (mad) of non-interacting combinations: […]
The next experiment relates to COLO-205. Briefly: Cell proliferation (cell count by microscopy), COLO-205. The class given is cell-based. The note with it: Homo sapiens; COLO-205 (BRAF), 72 h treatment, single agent tested 13 nM-10 μM; 50% of cell counts relative to DMSO.
Excerpt: as §1, §2

The IC50 is the midpoint of a concentration-inhibition curve. A low value points to greater potency.

In the case of `C#Cc1cccc(Nc2ncnc3cc(OCCOC)c(OCCOC)cc23)c1` [Erlotinib, N-(3-ethynylphenyl)-6,7-bis(2-methoxyethoxy)quinazolin-4-amine], the IC50 is over 10 µM with RKO; over 10 µM in the experiment on SW837; 6.92 µM in the experiment on COLO-320; over 10 µM with LS411N; over 10 µM in the experiment on LIM2551; over 10 µM in the experiment on SW480. Also, the IC50 in the experiment with HCT-116 is over 10 µM; in the experiment on HT-29, over 10 µM; with LoVo, 0.716 µM; in the experiment on GP2d it was 8.86 µM; in the experiment on LS-180 it was over 10 µM; in the experiment on OUMS-23, over 10 µM. Also, the values for the IC50 in the experiment on DLD-1 and in the experiment on COLO-205 were 7.06 µM and over 10 µM, respectively. Also, the “cell lines in which IC50s were achieved for the concentration range tested” value in experiment [1] is given as 5/15.

Values taken from patent US20180243304A1, “PHARMACEUTICAL COMBINATIONS COMPRISING (A) THE CYCLIN DEPENDENT KINASE 4/6 (CDK4/6) INHIBITOR LEE011 (=RIBOCICLIB), AND (B) THE EPIDERMAL GROWTH FACTOR RECEPTOR (EGFR) INHIBITOR ERLOTINIB, FOR THE TREATMENT OR PREVENTION OF CANCER” (Novartis AG, priority 2015, published 2018).
